Measurements taken from PMC7290864, “Allosteric Antagonism of the A2A Adenosine Receptor by a Series of Bitopic Ligands” (Cells, 2020).

Experiments:
human A2AAR [1] = biological target: T1, human A2AAR (Homo sapiens, UniProt P29274); assay: Fluorescent ligand MRS7416 binding to intact HEK293 cells (flow cytometry); details: for Ki: displacement of 15 nM fluorescent MRS7416, intact cells, 37 °C, 60 min; for Times weaker in displacing MRS7416 binding than radioligand binding: fluorescent versus radioligand Ki
T1 construct: expressed in transfected cells; host or cells: HEK293 cells stably expressing the human A2AAR
Procedure: Cells were plated in 96-well plates and grow overnight. In saturation binding experiments with fluorescent antagonist MRS7416, various concentrations were incubated in cell culture medium with control HEK293 cells or HEK293 cells expressing the A2AAR for 60 min at 37 °C in an atmosphere containing 5% CO2. […] At the end the reaction, the medium was removed, and cells were washed twice with PBS. After washing, 0.2 mL 0.1% EDTA solution was added to each well, and cells were incubated at 37 °C for 10 min. Following cell detachment and mixing of cells, the intensity of fluorescence emission of each sample was measured by using flow cytometry as previously described. […] Samples were maintained in the dark during the analysis to avoid photobleaching. Mean fluorescence intensity (MFI) was determined in the FL-1 channel in log mode. Ten thousand events were analyzed per sample. Data were collected using Cell Quest Pro software (BD, Franklin Lakes, NJ, USA) and analyzed by Cyflogic v. 1.2.1 software (CyFlo, Ltd., Turku, Finland).

human A2AAR [2] = biological target: T1, human A2AAR; assay: [^3H]ZM241385 radioligand binding, HEK293 membranes; details: for Ki: WT receptor, 1 nM [^3H]ZM241385, membranes, 25 °C, 60 min
Procedure: (§1) HEK293 cells expressing the human A2AAR were cultured in DMEM supplemented with 10% fetal bovine serum, 100 Units/mL penicillin, 100 µg/mL streptomycin and 2 µmol/mL glutamine. To prepare cell membranes, cells were detached from plates by scraping into PBS and centrifuged at 250× g for 5 min. The resulting pellets were re-suspended in ice-cold Tris-HCl buffer (50 mM, pH 7.4) and homogenized. After homogenization and suspension, cells were first centrifuged at 1000× g for 10 min and the pellet was discarded. The suspension was then re-centrifuged at 20,000× g for 60 min at 4 °C. The pellets were re-suspended, split into aliquots and stored at −80 °C. The protein concentration was measured using the Bradford assay.
(§2) Radioligand binding assays were performed using membranes prepared from HEK293 cells expressing human the A2AAR using both agonist and antagonist radioligands as previously described. […] (5 nM) or [^3H]ZM241385 (1 nM) and membrane preparations (20 μg protein) at 25 °C for 60 min in a total of 200 μL of Tris-HCl buffer (50 mM, pH 7.5) containing 10 mM MgCl2. […] Binding reactions were terminated by filtration through Whatman GF/B filters under reduced pressure using an MT-24 cell harvester (Brandell, Gaithersburg, MD, USA) followed by washing twice with 5 mL of cold Tris-HCl buffer.
(§3) Functional parameters were calculated using Prism 8.1.0 software (GraphPAD, San Diego, CA, USA). Data were expressed as mean ± standard error. Data were analyzed by analysis of variance (ANOVA) followed by post hoc analysis to check the statistical difference among groups with p < 0.05 being considered significant.

human A2AAR [3] = biological target: T1, human A2AAR; assay: cAMP accumulation assay, antagonism of CGS21680 with Schild analysis; type: cell-based; details: for Kb / Functional Antagonism Slope (Schild): Schild analysis, CGS21680-induced cAMP; for Kb: antagonist pretreatment 20 min, read-out: Functional Antagonism KB; for Functional Antagonism Slope (Schild): linear part of plot only for XAC630, MRS7396, HMA; for Pattern of A2AAR antagonism: from functional antagonism and Schild analysis
Procedure: HEK293 cells stably expressing the human A2AAR were seeded in 96-well plates and incubated in 100 µL medium at 37 °C overnight. The medium was removed the following day and cells were then treated with assay buffer containing rolipram (10 μM) and antagonists for 20 min followed by the addition of agonists, and then incubated for 20 min. The reaction was terminated upon removal of the supernatant and addition of 100 µL Tween-20 (0.3%). Intracellular 3′,5′-cyclic adenosine monophosphate (cAMP) levels were measured with an ALPHAScreen cAMP assay kit as instructed by the manufacturer (PerkinElmer, Boston, MA, USA).
as §3
To examine and analyze mechanistically the patterns of functional antagonism by various antagonists of different chemical entities, cells expressing relatively low A2AAR levels with minimal signaling amplification were used, as recommended, since receptor overexpression is related to the constitutive activity, and signaling amplification has been linked to changing the patterns of antagonism.

human A2AAR [4] = biological target: T1, human A2AAR; assay: [^3H]CGS21680 radioligand binding, HEK293 membranes; details: for Ki: 5 nM [^3H]CGS21680, membranes, 25 °C, 60 min; for [^3H]CGS21680 binding, percent effect of the fluorophore amide alone: at a concentration of 10 µM
Procedure: as §1, §2, §3

A2AAR D52A mutation = system: A2AAR D52A mutation; design: method as in Massink et al. [10],[11]; details: ref Massink et al. [10],[11]; cited from earlier work
D52N mutant A2AAR = biological target: T2, D52N mutant A2AAR (Homo sapiens, UniProt P29274, D52N); assay: [^3H]ZM241385 binding to D52N mutant A2AAR expressed in HEK293 cells; details: for Ki: 1 nM [^3H]ZM241385
T2 construct: expressed in transfected cells; host or cells: HEK293 cells
Procedure: as §2
Here we examined if HMA and MRS7396 behave in a similar manner or not.
Data were from three independent experiments performed in duplicate.

T2 sequence (P29274 whole entry D52N): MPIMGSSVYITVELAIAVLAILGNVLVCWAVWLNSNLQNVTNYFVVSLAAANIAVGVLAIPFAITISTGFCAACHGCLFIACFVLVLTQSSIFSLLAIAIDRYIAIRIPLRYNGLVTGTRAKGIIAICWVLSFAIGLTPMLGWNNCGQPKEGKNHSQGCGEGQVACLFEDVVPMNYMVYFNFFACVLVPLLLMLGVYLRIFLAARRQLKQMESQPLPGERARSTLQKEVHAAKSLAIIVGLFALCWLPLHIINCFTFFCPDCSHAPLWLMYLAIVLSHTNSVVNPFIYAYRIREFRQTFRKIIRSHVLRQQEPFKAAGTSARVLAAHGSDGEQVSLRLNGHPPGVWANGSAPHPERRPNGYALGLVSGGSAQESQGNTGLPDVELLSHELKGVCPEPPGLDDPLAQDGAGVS
T1 sequence (P29274 whole entry): as the sequence (P29274 whole entry D52N) above, with N52D counted along it

| Ki (human A2AAR [1]) | Ki (human A2AAR [2]) | Kb (human A2AAR [3]) | Functional Antagonism Slope (Schild) (human A2AAR [3]) | Pattern of A2AAR antagonism (human A2AAR [3]) | Ki (human A2AAR [4]) | Kd (human A2AAR [1]; saturation binding, intact cells, n = 6, read-out: Kd value from MRS7416 saturation experiments) | Times weaker in displacing MRS7416 binding than radioligand binding (human A2AAR [1]) | [^3H]CGS21680 binding, percent effect of the fluorophore amide alone (human A2AAR [4]) | Fold more potent in binding in comparison to MRS7416 (human A2AAR [2]; radioligand binding) | Fold weaker at WT than at the D52N mutant receptor (D52N mutant A2AAR; [^3H]ZM241385 binding) | SMILES | Fold decrease of affinity by D52A mutation (A2AAR D52A mutation) | Ki (D52N mutant A2AAR) | Fold affinity decrease at D52N versus WT (D52N mutant A2AAR; [^3H]ZM241385 binding) |
| --- | --- | --- | --- | --- | --- | --- | --- | --- | --- | --- | --- | --- | --- | --- |
| 152 ± 29 nM | 198 ± 33 nM | 280 ± 33 nM | 0.68 ± 0.04 | allosteric A2AAR antagonists | 220 ± 36 nM | – | – | – | – | – | CCCn1c(=O)c2[nH]c(-c3ccc(OCC(=O)NCCNC(=O)CCNC(=O)CCCCNC(=O)CCCCCN)cc3)nc2n(CCC)c1=O [XAC245] | – | – | – |
| 5.28 ± 1.31 nM | 6.24 ± 2.42 nM | 6.61 ± 0.88 nM | 0.88 ± 0.06 | – | 4.98 ± 1.13 nM | – | – | – | – | – | Nc1nc2c(cnn2CCCc2ccc(OCc3ccc(S(=O)(=O)O)cc3)cc2)c2nc(-c3ccco3)nn12 [MRS7352] | – | – | – |
| – | 23.8 ± 5.6 nM | 9.11 ± 1.77 nM | 0.68 ± 0.03 | allosteric A2AAR antagonists | 16.4 ± 1.6 nM | 17.6 ± 4.1 nM | – | – | – | – | N=c1ccc2c(-c3ccc(C(=O)NCCCCNC(=O)COc4ccc(CCCn5ncc6c5nc(N)n5nc(-c7ccco7)nc65)cc4)cc3C(=O)O)c3ccc(N)c(S(=O)(=O)O)c3oc-2c1S(=O)(=O)O [MRS7416] | – | – | – |
| – | 388 ± 62 nM | 650 ± 120 nM | 1.03 ± 0.05 | antagonized competitively | 438 ± 110 nM | – | – | – | – | – | CCCn1c(=O)c2[nH]c(-c3ccc(OCC(=O)NCCNC(=O)CCNC(=O)CCCCNC(=O)CCCCCNC(=O)c4ccc(-c5c6ccc(=N)c(S(=O)(=O)O)c-6oc6c(S(=O)(=O)O)c(N)ccc56)c(C(=O)O)c4)cc3)nc2n(CCC)c1=O [XAC488] | – | – | – |
| – | – | – | – | – | – | – | – | 2.6 ± 1.5% | – | – | NC(=O)CCCCCNC(=O)COc1ccc(/C=C/C2=[N+]3C(=Cc4ccc(-c5cccs5)n4[B-]3(F)F)C=C2)cc1 [BY630-amide] | – | – | – |
| 23 ± 4.6 nM | 13.3 ± 6.5 nM | – | – | – | – | – | – | – | – | – | N#Cc1c(N)nc(SCc2ncc[nH]2)c(C#N)c1-c1ccc(O)cc1 [LUF5834, 2-amino-4-(4-hydroxyphenyl)-6-[(1H-imidazol-2-ylmethyl)thio]-3,5-pyridinecarbonitrile, reference compound] | – | – | – |
| 692 ± 173 nM | 36.6 ± 10.1 nM | 51.1 ± 12.2 nM | 0.47 ± 0.04 | allosteric A2AAR antagonists | 29 ± 5.7 nM | – | 9–100 times | – | – | – | CCCn1c(=O)c2[nH]c(-c3ccc(OCC(=O)NCCNC(=O)CCCCCNC(=O)COc4ccc(/C=C/C5=[N+]6C(=Cc7ccc(-c8cccs8)n7[B-]6(F)F)C=C5)cc4)cc3)nc2n(CCC)c1=O [XAC630, reference compound] | – | – | – |
| – | – | – | – | – | – | – | – | 3.7 ± 1.2% | – | – | N=c1ccc2c(-c3ccc(C(N)=O)cc3C(=O)O)c3ccc(N)c(S(=O)(=O)O)c3oc-2c1S(=O)(=O)O [AF488-amide] | – | – | – |
| 256 ± 33 nM | 2.34 ± 0.33 nM | 1.7 ± 0.34 nM | 0.42 ± 0.02 | allosteric A2AAR antagonists | 2.83 ± 0.2 nM | – | 9–100 times | – | 10 fold | ~ 3 fold | Nc1nc2c(cnn2CCCc2ccc(OCC(=O)NCCCCNC(=O)CCCCCNC(=O)COc3ccc(/C=C/C4=[N+]5C(=Cc6ccc(-c7cccs7)n6[B-]5(F)F)C=C4)cc3)cc2)c2nc(-c3ccco3)nn12 [MRS7396] | – | 0.79 ± 0.23 nM | – |

| SMILES | Ki (human A2AAR [1]) | Ki (human A2AAR [2]) | Kb (human A2AAR [3]) | Functional Antagonism Slope (Schild) (human A2AAR [3]) | Pattern of A2AAR antagonism (human A2AAR [3]) | Ki (human A2AAR [4]) | Kd (human A2AAR [1]; saturation binding, intact cells, n = 6, read-out: Kd value from MRS7416 saturation experiments) | Times weaker in displacing MRS7416 binding than radioligand binding (human A2AAR [1]) | [^3H]CGS21680 binding, percent effect of the fluorophore amide alone (human A2AAR [4]) | Fold more potent in binding in comparison to MRS7416 (human A2AAR [2]; radioligand binding) | Fold weaker at WT than at the D52N mutant receptor (D52N mutant A2AAR; [^3H]ZM241385 binding) | Fold decrease of affinity by D52A mutation (A2AAR D52A mutation) | Ki (D52N mutant A2AAR) | Fold affinity decrease at D52N versus WT (D52N mutant A2AAR; [^3H]ZM241385 binding) |
| --- | --- | --- | --- | --- | --- | --- | --- | --- | --- | --- | --- | --- | --- | --- |
| NC(N)=NC(=O)c1nc(Cl)c(N2CCCCCC2)nc1N [HMA, 5-(N,N-hexamethylene)amiloride, reference compound] | 18500 ± 2800 nM | 3050 ± 1210 nM | 3810 ± 450 nM | 0.59 ± 0.05 | – | 2120 ± 510 nM | – | 9–100 times | – | – | – | over 10 fold | 15800 nM | 5 fold |
